Our source for the Renilla reporter induction, Induction and EC50 values is article PMC3115594 (Current Chemical Genomics, 2010).

The subject of test [1] is constitutive Renilla reporter expression in HEK293 cells. Put plainly: Renilla luciferase internal control reporter. The settings on record: E2 titration, treated/untreated (Fig. 5). It is filed as cell-based.
The target in test [2] is T1, GR (pBIND-GR, GR-LBD/GAL4 DBD) (Homo sapiens, UniProt P04150).
T1 sequence (P04150 500-777): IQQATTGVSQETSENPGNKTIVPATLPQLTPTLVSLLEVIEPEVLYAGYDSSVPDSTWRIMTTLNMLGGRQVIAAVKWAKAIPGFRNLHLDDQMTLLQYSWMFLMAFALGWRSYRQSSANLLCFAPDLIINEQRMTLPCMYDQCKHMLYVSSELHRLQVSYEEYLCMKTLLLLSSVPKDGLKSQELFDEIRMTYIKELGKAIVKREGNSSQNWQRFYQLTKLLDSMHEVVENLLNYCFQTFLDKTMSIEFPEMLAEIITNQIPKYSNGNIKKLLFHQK
It is filed as cell-based. The settings on record: for Induction: GR agonist, fold-induction, 384-well.

Regarding `C[C@]12CC[C@@H]3c4ccc(O)cc4CC[C@H]3[C@@H]1CC[C@@H]2O` [17β-estradiol, 17β- estradiol], the Renilla reporter induction entry in test [1] was “around 1.0”.
In test [2], `C[C@@H]1C[C@H]2[C@@H]3CCC4=CC(=O)C=C[C@]4(C)[C@@]3(F)[C@@H](O)C[C@]2(C)[C@@]1(O)C(=O)CO` [Dexamethasone, dexamethasone] came in with an Induction of 760.
In test [2], `C[C@]12CCC(=O)C=C1CC[C@@H]1[C@@H]2[C@@H](O)C[C@@]2(C)[C@H]1CC[C@]2(O)C(=O)CO` [Hydrocortisone, hydrocortisone] returned an Induction of 450.
For the molecule `C[C@]12CCC(=O)C=C1CC[C@@H]1[C@@H]2[C@@H](O)C[C@]2(C=O)[C@@H](C(=O)CO)CC[C@@H]12` [aldosterone], in test [2], the EC50 amounted to 21 µM and the Induction is 42.

As a reminder, the EC50 is the concentration that produces a half-maximal response. High values mean weaker potency, low ones greater potency.
